# Assay results taken from patent US20080112968A1, “NICOTINAMIDE COMPOSITIONS FOR TREATMENT OF SKIN DISEASES AND DISORDERS” (Dermena, priority 2006, published 2008).
# Assay: Solubility in water
# Format: physicochemical
# Settings: not given
row,Structure (SMILES),solubility [mg/mL]
1,"C[n+]1cccc(C(N)=O)c1 [Compound 1, 1-Methylnicotinamide]",> 600

# Assay: Binding of pyridinium salts to sepharose immobilized heparin (spectrophotometric degree of binding)
# Settings: water solution incubated 5 minutes with sepharose immobilized heparin 25 mg/mL
# Text: Spectrophotometric methodologies were applied to estimate a degree of binding (DB) of the investigated compounds with heparin. This method is based on the absorption measurements of water solution of the investigated compound before and after a contact with heparin. The concentration was adjusted such that the absorbance in the region near the absorption maximum was around 1. The absorption spectra was collected for these prepared solutions. The same solutions of the investigated pyridinium salts were also incubated for 5 minutes with sepharose immobilized heparin (Heparin Sepharose CL-6B, Amersham Biosciences AB, Sweden) added in amount of 25 mg/mL. The suspensions of immobilized heparin with the analyzed compounds were then placed into Eppendorf microtubes and centrifuged at 13000 g for 4 minutes. The resulting clear solution over the sediment was introduced into a cuvette, and the absorption spectrum was measured. The degree of binding was estimated based on comparison of integrated area under the absorption curve for the solutions incubated and non-contacted with heparin.
# DB was calculated according to the equation (1):
# where: DB=degree of binding,
# IA=integrated area under absorption curve for sample without contact with immobilized heparin,
# IAHEP=integrated area under absorption curve for sample incubated with immobilized heparin.
row,Structure (SMILES),"Degree of binding, [%]"
1,"C[n+]1cccc(C(N)=O)c1 [Compound 1, 1-Methylnicotinamide]",>45%
2,"CNC(=O)c1ccc[n+](C)c1 [Compound 2, 1,N′-Dimethylnicotinamide]",20-45%
3,"CCN(CC)C(=O)c1ccc[n+](C)c1 [Compound 3, 1-Methyl-N′,N′-diethylnicotin-amide]",20-45%
4,"C[n+]1cccc(C(=O)NCO)c1 [Compound 4, 1-Methyl-N′-(hydroxymethyl)-nicotinamide]",20-45%

# Second part, the molecule after the results:
row,"Degree of binding, [%]",Structure (SMILES)
1,20-45%,"CC(=O)c1ccc[n+](C)c1 [Compound 5, 1-Methyl-3-acetylpyridine]"
2,20-45%,"CCC[n+]1cccc(C(N)=O)c1 [Compound 6, 1-Propylnicotinamide]"
3,<20%,"C[n+]1cccc(C(=O)[O-])c1 [Compound 7, Trigonelline]"
4,<20%,"NC(=O)c1cccnc1 [Compound 8, Nicotinamide]"
